Measurements reported in publication PMC4642645, “Oxacillin sensitization of methicillin-resistant Staphylococcus aureus and methicillin-resistant Staphylococcus pseudintermedius by antisense peptide nucleic acids in vitro” (BMC Microbiology, 2015).
Several values for one entry are separate records, joined by “and”; a condition that tells them apart may be missing. Equal values may be shown once.

Key:
NCTC 13142 = assay: Oxacillin MIC and sensitization broth growth assay (broth microdilution, CLSI); assay type: cell-based, Staphylococcus aureus (MRSA); conditions: for Oxacillin MIC with anti-mecA PNA treatment: NCTC 13142, 5 μM PNA; for Sensitization to oxacillin in broth microdilution assays: NCTC 13142, PNAs with EJH-L1 or HIV-1 Tat carrier, data not shown
Experimental: (§1) The MRSA strain NCTC 13142 from Public Health England Culture Collections is a UK epidemic strain type EMRSA-15, SCCmec Type IV, and the MRSP strain HH-1 was isolated from a canine skin infection and is ST71, SCCmecII-III [19]. Bacteria were cultured on Columbia base agar (Oxoid, Basingstoke, UK) supplemented with 5 % horse blood (Oxoid) and 6 μg/ml oxacillin (Sigma Aldrich, UK) at 35 °C for 20 h. Overnight broth cultures were prepared from single bacterial colonies inoculated in 3 ml Mueller Hinton broth (MHB, Oxoid) supplemented with 6 μg/ml oxacillin and incubated at 35 °C for 20 h at 180 rpm on a rotary shaker.
(§2) The MIC of oxacillin was determined by broth microdilution according to CLSI guidelines. Briefly, overnight broth cultures of MRSA and MRSP were standardized to OD625 = 0.08–0.09 (equivalent to 10^8 CFU/ml) in MHB and further diluted 100-fold to obtain 10^6 CFU/ml. The bacterial suspension was then inoculated at 50 μl per well to a final concentration of 5 × 10^5 CFU/ml. Two-fold serial dilutions of oxacillin (2–512 μg/ml) were added to bacterial cultures at 50 μl per well to a final volume of 100 μl per well, and 96 well plates were incubated at 35 °C for 24 h. MICs were visually scored.
(§3) Overnight broth cultures were adjusted to 5 × 10^5 CFU/ml per well of a 96 well plate as described above and used either in a broth growth assay or a viable count assay. The broth growth assay was used as an initial screen of PNA efficacy because it was simple to carry out. […] Anti-mecA PNAs were added at either 2.5 or 5 μM. After incubation at 35 °C for 24 h, the MIC of oxacillin in combination with the PNAs in broth cultures were scored visually as recommended by CLSI guidelines.

HH-1 = assay: as above; assay type: cell-based, Staphylococcus pseudintermedius (MRSP); conditions: for Oxacillin MIC with anti-mecA PNA treatment: HH-1, 2.5 μM PNA; for Sensitization to oxacillin in broth microdilution assays: HH-1, PNAs with EJH-L1 or HIV-1 Tat carrier, data not shown
Experimental: as §1, §2, §3

[1] = MHB, 35 °C, 24 h, scored visually, n=2

Molecule | Oxacillin MIC with anti-mecA PNA treatment (NCTC 13142; [1]) [µg/mL] | Oxacillin MIC with anti-mecA PNA treatment (HH-1; [1]) [µg/mL] | Sensitization to oxacillin in broth microdilution assays (NCTC 13142) | Sensitization to oxacillin in broth microdilution assays (HH-1) | also measured
Cc1onc(-c2ccccc2)c1C(=O)N[C@@H]1C(=O)N2[C@@H]1SC(C)(C)[C@@H]2C(=O)O [Oxacillin, oxacillin] | – | – | – | – | Oxacillin MIC (NCTC 13142; NCTC 13142, 0 μM PNA, MHB, 35 °C, 24 h, scored visually, n=2): 256 µg/mL and 512 µg/mL; MIC (NCTC 13142; Staphylococcus aureus, NCTC13142, 24 h, NCTC 13142, 0 μM PNA, MHB, 35 °C, 24 h, scored visually, n=2): ≥ 256 µg/mL; Oxacillin MIC (HH-1; HH-1, 0 μM PNA, MHB, 35 °C, 24 h, scored visually, n=2): 512 µg/mL; MIC (HH-1; Staphylococcus pseudintermedius, 24 h, HH-1, 0 μM PNA, MHB, 35 °C, scored visually, n=2): ≥ 256 µg/mL
KFFKFFKFFK-O-caatatcctc-CONH2 [A101, anti-mecA PNA (−10 to −1) conjugated to cell-penetrating peptide …] | 512 | 256 | – | – | –
KFFKFFKFFK-eg1-atcaatatcc-CONH2 [A82, anti-mecA PNA (−8 to +2) conjugated to cell-penetrating peptide …] | 128 | 256 | – | – | –
KFFKFFKFFK-eg1-ttcatcaata-CONH2 [A55, anti-mecA PNA (−5 to +5) conjugated to cell-penetrating peptide …] | 256 | 512 | – | – | –
MINWKLRLKNK-O-cactataatc-CONH2 [scrA-EJH, scrambled PNA conjugated to EJH-L1 peptide (…)] | – | – | did not have an effect | did not have an effect | –
MINWKLRLKNK-O-catcaatatc-CONH2 [A73-EJH] | – | – | 2 fold | 2 fold | –
YGRKKRRQRRR-O-cactataatc-CONH2 [scrA-Tat, scrambled PNA conjugated to HIV 1-Tat peptide (…)] | – | – | did not have an effect | did not have an effect | –
YGRKKRRQRRR-O-catcaatatc-CONH2 [A73-Tat] | – | – | 2 fold | 2 fold | –
